The supplement of paper PMC10307832

Assays:
Assay in all cases: relative viability (nuclei count vs DMSO), 5 days (fraction); higher = more cells survive
Imatinib + OSI-027 = compound: Cc1ccc(NC(=O)c2ccc(CN3CCN(C)CC3)cc2)cc1Nc1nccc(-c2cccnc2)n1 [Imatinib] + COc1cccc2cc(-c3nc([C@H]4CC[C@H](C(=O)O)CC4)n4ncnc(N)c34)[nH]c12 [OSI-027] (partner 0.5 µM)
Procedure, shortened: (§1)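 One day after seeding in 1536-well plates, lung cancer cell lines were dosed by pin tool. Dosing was either single-drug or a fixed anchor-drug dose plus five library-drug doses (not always all listed) in √10 steps. After 5 days, nuclei were stained in one fix-and-stain step and counted on 4× images, and relative viability is the nuclei count of treated wells over that of vehicle wells, given as the median of duplicate plates.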

Imatinib + Phenformin = compound: Cc1ccc(NC(=O)c2ccc(CN3CCN(C)CC3)cc2)cc1Nc1nccc(-c2cccnc2)n1 [Imatinib] + N=C(N)NC(=N)NCCc1ccccc1 [Phenformin] (partner 250 µM)
Procedure, shortened: as §1

Imatinib + Luminespib = compound: Cc1ccc(NC(=O)c2ccc(CN3CCN(C)CC3)cc2)cc1Nc1nccc(-c2cccnc2)n1 [Imatinib] + CCNC(=O)c1noc(-c2cc(C(C)C)c(O)cc2O)c1-c1ccc(CN2CCOCC2)cc1 [Luminespib] (partner 0.01 µM)
Procedure, shortened: as §1

Imatinib + Foretinib = compound: Cc1ccc(NC(=O)c2ccc(CN3CCN(C)CC3)cc2)cc1Nc1nccc(-c2cccnc2)n1 [Imatinib] + COc1cc2c(Oc3ccc(NC(=O)C4(C(=O)Nc5ccc(F)cc5)CC4)cc3F)ccnc2cc1OCCCN1CCOCC1 [Foretinib] (partner 0.25 µM)
Procedure, shortened: as §1

Imatinib + Dasatinib = compound: Cc1ccc(NC(=O)c2ccc(CN3CCN(C)CC3)cc2)cc1Nc1nccc(-c2cccnc2)n1 [Imatinib] + Cc1nc(Nc2ncc(C(=O)Nc3c(C)cccc3Cl)s2)cc(N2CCN(CCO)CC2)n1 [Dasatinib] (partner 0.075 µM)
Procedure, shortened: as §1

Imatinib + Tozasertib = compound: Cc1ccc(NC(=O)c2ccc(CN3CCN(C)CC3)cc2)cc1Nc1nccc(-c2cccnc2)n1 [Imatinib] + Cc1cc(Nc2cc(N3CCN(C)CC3)nc(Sc3ccc(NC(=O)C4CC4)cc3)n2)n[nH]1 [Tozasertib] (partner 0.1 µM)
Procedure, shortened: as §1

Imatinib = compound: Cc1ccc(NC(=O)c2ccc(CN3CCN(C)CC3)cc2)cc1Nc1nccc(-c2cccnc2)n1 [Imatinib]
Procedure, shortened: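 Acceptance criteria were a control CV below 25% and at least one doubling per plate. Lung cancer cell lines in 1536-well plates got five library-drug doses (not always all listed) √10 apart by pinning and were left 5 days with no medium change. Viability divides treated-well nuclei by vehicle-well nuclei and is the median across plates. Nuclei were counted by MetaXpress from 4× Hoechst images.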

Imatinib + Palbociclib = compound: Cc1ccc(NC(=O)c2ccc(CN3CCN(C)CC3)cc2)cc1Nc1nccc(-c2cccnc2)n1 [Imatinib] + CC(=O)c1c(C)c2cnc(Nc3ccc(N4CCNCC4)cn3)nc2n(C2CCCC2)c1=O [Palbociclib] (partner 0.5 µM)
Procedure, shortened: as §1

Imatinib + Olaparib = compound: Cc1ccc(NC(=O)c2ccc(CN3CCN(C)CC3)cc2)cc1Nc1nccc(-c2cccnc2)n1 [Imatinib] + O=C(c1cc(Cc2n[nH]c(=O)c3ccccc23)ccc1F)N1CCN(C(=O)C2CC2)CC1 [Olaparib] (partner 8 µM)
Procedure, shortened: as §1

Imatinib + Pemetrexed = compound: Cc1ccc(NC(=O)c2ccc(CN3CCN(C)CC3)cc2)cc1Nc1nccc(-c2cccnc2)n1 [Imatinib] + Nc1nc2[nH]cc(CCc3ccc(C(=O)N[C@@H](CCC(=O)O)C(=O)O)cc3)c2c(=O)[nH]1 [Pemetrexed] (partner 0.2 µM)
Procedure, shortened: as §1

Imatinib + Decitabine = compound: Cc1ccc(NC(=O)c2ccc(CN3CCN(C)CC3)cc2)cc1Nc1nccc(-c2cccnc2)n1 [Imatinib] + Nc1ncn([C@H]2C[C@H](O)[C@@H](CO)O2)c(=O)n1 [Decitabine] (partner 2 µM)
Procedure, shortened: as §1

Imatinib + Vorinostat = compound: Cc1ccc(NC(=O)c2ccc(CN3CCN(C)CC3)cc2)cc1Nc1nccc(-c2cccnc2)n1 [Imatinib] + O=C(CCCCCCC(=O)Nc1ccccc1)NO [Vorinostat] (partner 1 µM)
Procedure, shortened: as §1

Imatinib + Trametinib = compound: Cc1ccc(NC(=O)c2ccc(CN3CCN(C)CC3)cc2)cc1Nc1nccc(-c2cccnc2)n1 [Imatinib] + CC(=O)Nc1cccc(-n2c(=O)n(C3CC3)c(=O)c3c(Nc4ccc(I)cc4F)n(C)c(=O)c(C)c32)c1 [Trametinib] (partner 0.02 µM)
Procedure, shortened: as §1

Imatinib + AZD7762 = compound: Cc1ccc(NC(=O)c2ccc(CN3CCN(C)CC3)cc2)cc1Nc1nccc(-c2cccnc2)n1 [Imatinib] + NC(=O)Nc1cc(-c2cccc(F)c2)sc1C(=O)N[C@H]1CCCNC1 [AZD7762] (partner 0.2 µM)
Procedure, shortened: as §1

## NCI-H1623
Imatinib + OSI-027; first compound 0.02 µM
  relative viability: 0.453
Imatinib + OSI-027; first compound 0.06325 µM
  relative viability: 0.453
Imatinib + OSI-027; first compound 0.2 µM
  relative viability: 0.386
Imatinib + OSI-027; first compound 0.6325 µM
  relative viability: 0.431
Imatinib + OSI-027; first compound 2 µM
  relative viability: 0.417
Imatinib + Phenformin; first compound 0.02 µM
  relative viability: 0.623
Imatinib + Phenformin; first compound 0.06325 µM
  relative viability: 0.601
Imatinib + Phenformin; first compound 0.2 µM
  relative viability: 0.535
Imatinib + Phenformin; first compound 0.6325 µM
  relative viability: 0.573
Imatinib + Phenformin; first compound 2 µM
  relative viability: 0.571
Imatinib + Luminespib; first compound 0.02 µM
  relative viability: 0.509
Imatinib + Luminespib; first compound 0.06325 µM
  relative viability: 0.522
Imatinib + Luminespib; first compound 0.2 µM
  relative viability: 0.489
Imatinib + Luminespib; first compound 0.6325 µM
  relative viability: 0.569
Imatinib + Luminespib; first compound 2 µM
  relative viability: 0.467
Imatinib + Foretinib; first compound 0.02 µM
  relative viability: 0.872
Imatinib + Foretinib; first compound 0.06325 µM
  relative viability: 0.811
Imatinib + Foretinib; first compound 0.2 µM
  relative viability: 0.749
Imatinib + Foretinib; first compound 0.6325 µM
  relative viability: 0.788
Imatinib + Foretinib; first compound 2 µM
  relative viability: 0.894
Imatinib + Dasatinib; first compound 0.02 µM
  relative viability: 0.552
Imatinib + Dasatinib; first compound 0.06325 µM
  relative viability: 0.539
Imatinib + Dasatinib; first compound 0.2 µM
  relative viability: 0.482
Imatinib + Dasatinib; first compound 0.6325 µM
  relative viability: 0.537
Imatinib + Dasatinib; first compound 2 µM
  relative viability: 0.538
Imatinib + Tozasertib; first compound 0.02 µM
  relative viability: 0.435
Imatinib + Tozasertib; first compound 0.06325 µM
  relative viability: 0.488
Imatinib + Tozasertib; first compound 0.2 µM
  relative viability: 0.401
Imatinib + Tozasertib; first compound 0.6325 µM
  relative viability: 0.451
Imatinib + Tozasertib; first compound 2 µM
  relative viability: 0.416
Imatinib; 0.02 µM
  relative viability: 0.97
Imatinib; 0.06325 µM
  relative viability: 0.763
Imatinib; 0.2 µM
  relative viability: 0.814
Imatinib; 0.6325 µM
  relative viability: 0.956
Imatinib; 2 µM
  relative viability: 0.947

## NCI-H2342
Imatinib + OSI-027; first compound 0.02 µM
  relative viability: 0.667
Imatinib + OSI-027; first compound 0.06325 µM
  relative viability: 0.539
Imatinib + OSI-027; first compound 0.2 µM
  relative viability: 0.636
Imatinib + OSI-027; first compound 0.6325 µM
  relative viability: 0.596
Imatinib + OSI-027; first compound 2 µM
  relative viability: 0.665
Imatinib + Palbociclib; first compound 0.02 µM
  relative viability: 0.506
Imatinib + Palbociclib; first compound 0.06325 µM
  relative viability: 0.586
Imatinib + Palbociclib; first compound 0.2 µM
  relative viability: 0.504
Imatinib + Palbociclib; first compound 0.6325 µM
  relative viability: 0.503
Imatinib + Palbociclib; first compound 2 µM
  relative viability: 0.539
Imatinib + Olaparib; first compound 0.02 µM
  relative viability: 0.44
Imatinib + Olaparib; first compound 0.06325 µM
  relative viability: 0.404
Imatinib + Olaparib; first compound 0.2 µM
  relative viability: 0.466
Imatinib + Olaparib; first compound 0.6325 µM
  relative viability: 0.473
Imatinib + Olaparib; first compound 2 µM
  relative viability: 0.426
Imatinib + Phenformin; first compound 0.02 µM
  relative viability: 0.633
Imatinib + Phenformin; first compound 0.06325 µM
  relative viability: 0.57
Imatinib + Phenformin; first compound 0.2 µM
  relative viability: 0.587
Imatinib + Phenformin; first compound 0.6325 µM
  relative viability: 0.573
Imatinib + Phenformin; first compound 2 µM
  relative viability: 0.561
Imatinib + Luminespib; first compound 0.02 µM
  relative viability: 0.787
Imatinib + Luminespib; first compound 0.06325 µM
  relative viability: 0.757
Imatinib + Luminespib; first compound 0.2 µM
  relative viability: 0.728
Imatinib + Luminespib; first compound 0.6325 µM
  relative viability: 0.649
Imatinib + Luminespib; first compound 2 µM
  relative viability: 0.715
Imatinib + Foretinib; first compound 0.02 µM
  relative viability: 1.15
Imatinib + Foretinib; first compound 0.06325 µM
  relative viability: 1.25
Imatinib + Foretinib; first compound 0.2 µM
  relative viability: 1.18
Imatinib + Foretinib; first compound 0.6325 µM
  relative viability: 0.97
Imatinib + Foretinib; first compound 2 µM
  relative viability: 0.966
Imatinib + Pemetrexed; first compound 0.02 µM
  relative viability: 0.688
Imatinib + Pemetrexed; first compound 0.06325 µM
  relative viability: 0.665
Imatinib + Pemetrexed; first compound 0.2 µM
  relative viability: 0.834
Imatinib + Pemetrexed; first compound 0.6325 µM
  relative viability: 0.738
Imatinib + Decitabine; first compound 0.02 µM
  relative viability: 0.745
Imatinib + Decitabine; first compound 0.06325 µM
  relative viability: 0.713
Imatinib + Decitabine; first compound 0.2 µM
  relative viability: 0.779
Imatinib + Decitabine; first compound 0.6325 µM
  relative viability: 0.679
Imatinib + Decitabine; first compound 2 µM
  relative viability: 0.71
Imatinib + Dasatinib; first compound 0.02 µM
  relative viability: 0.289
Imatinib + Dasatinib; first compound 0.06325 µM
  relative viability: 0.326
Imatinib + Dasatinib; first compound 0.2 µM
  relative viability: 0.321
Imatinib + Dasatinib; first compound 0.6325 µM
  relative viability: 0.321
Imatinib + Dasatinib; first compound 2 µM
  relative viability: 0.316
Imatinib + Vorinostat; first compound 0.02 µM
  relative viability: 0.766
Imatinib + Vorinostat; first compound 0.06325 µM
  relative viability: 0.789
Imatinib + Vorinostat; first compound 0.2 µM
  relative viability: 0.772
Imatinib + Vorinostat; first compound 0.6325 µM
  relative viability: 0.865
Imatinib + Vorinostat; first compound 2 µM
  relative viability: 0.745
Imatinib + Trametinib; first compound 0.02 µM
  relative viability: 0.847
Imatinib + Trametinib; first compound 0.06325 µM
  relative viability: 0.814
Imatinib + Trametinib; first compound 0.2 µM
  relative viability: 0.869
Imatinib + Trametinib; first compound 0.6325 µM
  relative viability: 0.828
Imatinib + Trametinib; first compound 2 µM
  relative viability: 0.853
Imatinib + AZD7762; first compound 0.02 µM
  relative viability: 0.434
Imatinib + AZD7762; first compound 0.06325 µM
  relative viability: 0.493
Imatinib + AZD7762; first compound 0.2 µM
  relative viability: 0.443
Imatinib + AZD7762; first compound 0.6325 µM
  relative viability: 0.455
Imatinib + AZD7762; first compound 2 µM
  relative viability: 0.553
Imatinib + Tozasertib; first compound 0.02 µM
  relative viability: 0.6
Imatinib + Tozasertib; first compound 0.06325 µM
  relative viability: 0.511
Imatinib + Tozasertib; first compound 0.2 µM
  relative viability: 0.499
Imatinib + Tozasertib; first compound 0.6325 µM
  relative viability: 0.502
Imatinib + Tozasertib; first compound 2 µM
  relative viability: 0.494
Imatinib; 0.02 µM
  relative viability: 0.896
Imatinib; 0.06325 µM
  relative viability: 0.891
Imatinib; 0.2 µM
  relative viability: 0.972
Imatinib; 0.6325 µM
  relative viability: 0.943
Imatinib; 2 µM
  relative viability: 0.998
